Measured values published in publication PMC11355195 (Life, 2024).
In brackets after ≈: the same amount, converted by molar mass.

Legend:
MCF-7 = assay: MTT cell viability, MCF-7; type: cell-based, Human; conditions: Homo sapiens, MCF7; MTT test; 72 h of treatment (Figure 3); read-out: IC50 Value ± SD, MCF-7
Description: These cell lines were selected to represent distinct sub-types of breast cancer for extensive investigation. […] The medium was added with 10% heat-inactivated fetal calf serum (FCS) to supply vital growth hormones and nutrients necessary for cell proliferation. Additionally, 1% penicillin streptomycin was administered to avoid bacterial contamination, ensuring the sterility and integrity of the cell cultures. The cell cultures were maintained at 37 °C in a humidified environment containing 5% CO2. This controlled environment mimics physiological conditions in the human body, supporting optimal cell development and function. The humidified atmosphere prevents medium evaporation, while the 5% CO2 concentration maintains optimal pH values in the culture medium. These specialized circumstances and methods ensure that the breast cancer cell lines remain healthy and viable for experimental procedures, delivering dependable and reproducible results for research projects. The standard protocols followed for cultivating these cells are crucial for generating consistent and reliable data. Using well-characterized cell lines from a credible source like ATCC ensures the re-liability and comparability of the experimental outcomes.
This approach determines cell viability based on the ability of living cells to decrease MTT to a purple, water-insoluble formazan product. Cells were planted in 96-well plates at a density of 1 × 10^4 cells per well in 100 μL of complete culture media, which provides all necessary nutrients for cell growth. […] The cells were then treated with the compounds for 24, 48, and 72 h to determine the effect on cell viability over varied time intervals. Following each incubation time, 20 μL of MTT solution (at a concentration of 5 mg/mL in PBS) were applied to each well. The plates were further incubated for 4 h at 37 °C, during which time live cells decrease the MTT to formazan, creating purple crystals. At the end of the incubation, the medium containing the MTT was carefully aspirated, leaving only the formazan crystals in the bottom of the wells. […]

[1] = test system: peripheral blood mononuclear cells (PBMC); assay: MTT cell viability, PBMC (normal cell control); type: cell-based; conditions: PBMC, MTT test, 72 h of treatment (Figure 3), read-out: IC50 Value ± SD, PBMC
Description: This approach determines cell viability based on the ability of living cells to decrease MTT to a purple, water-insoluble formazan product. Cells were planted in 96-well plates at a density of 1 × 10^4 cells per well in 100 μL of complete culture media, which provides all necessary nutrients for cell growth. […] The cells were then treated with the compounds for 24, 48, and 72 h to determine the effect on cell viability over varied time intervals. Following each incubation time, 20 μL of MTT solution (at a concentration of 5 mg/mL in PBS) were applied to each well. The plates were further incubated for 4 h at 37 °C, during which time live cells decrease the MTT to formazan, creating purple crystals. At the end of the incubation, the medium containing the MTT was carefully aspirated, leaving only the formazan crystals in the bottom of the wells. To dissolve these crystals, 100 μL of DMSO were administered to each well. […] This formula quantifies the reduction in cell viability in response to the treatments compared to the control. […] Cisplatin, a known anticancer drug, was used as a reference drug at varying concentrations from 0.01 to 50 µg/mL.

5-LOX = biological target: T1, 5-LOX (Glycine max, UniProt P08170); assay: 5-Lipoxygenase (5-LOX) inhibition
T1 sequence (P08170 1-839): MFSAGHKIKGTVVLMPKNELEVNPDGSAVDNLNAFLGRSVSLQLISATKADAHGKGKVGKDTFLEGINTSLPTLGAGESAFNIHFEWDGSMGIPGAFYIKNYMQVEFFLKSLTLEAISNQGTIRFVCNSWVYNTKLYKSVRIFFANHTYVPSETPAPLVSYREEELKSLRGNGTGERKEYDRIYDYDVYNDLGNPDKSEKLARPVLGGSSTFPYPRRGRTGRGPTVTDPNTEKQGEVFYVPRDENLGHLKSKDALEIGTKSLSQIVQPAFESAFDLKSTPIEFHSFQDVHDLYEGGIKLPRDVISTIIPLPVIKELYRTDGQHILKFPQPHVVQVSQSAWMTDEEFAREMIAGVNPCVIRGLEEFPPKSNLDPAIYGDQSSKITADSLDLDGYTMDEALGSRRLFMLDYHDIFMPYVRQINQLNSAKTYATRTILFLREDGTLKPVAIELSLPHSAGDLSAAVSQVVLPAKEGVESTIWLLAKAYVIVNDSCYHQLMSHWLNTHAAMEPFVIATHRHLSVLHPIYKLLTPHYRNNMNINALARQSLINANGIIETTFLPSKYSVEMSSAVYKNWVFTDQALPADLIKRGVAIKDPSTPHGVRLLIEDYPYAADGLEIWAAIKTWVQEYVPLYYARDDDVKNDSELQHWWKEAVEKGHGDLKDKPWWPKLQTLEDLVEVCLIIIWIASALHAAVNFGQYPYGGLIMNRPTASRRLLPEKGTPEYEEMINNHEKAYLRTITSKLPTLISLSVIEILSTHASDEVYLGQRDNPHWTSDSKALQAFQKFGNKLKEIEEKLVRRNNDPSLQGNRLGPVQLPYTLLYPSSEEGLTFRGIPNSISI
Description: The % inhibition of hydrogen peroxide formation, an indication of lipoxygenase inhibitory action, was computed according to the formula: Inhibition percentage%=Acontrol−Ablank−Asample−Ablank/Acontrol−Ablank where Acontrol, Ablank and ASample represent the absorbances of the control well, blank, and test sample, respectively.

Cc1ccc(C(C)C)c(O)c1 [Thymol, 2-isopropyl-5-methylphenol] was tested, and the IC50 (MCF-7) was 5.16 ± 0.71 µg/mL (≈ 34.3 µM), the IC50 [1] was 307 ± 3.48 µg/mL (≈ 2050 µM) and the IC50 (5-LOX) was 308 µM.
